Measured values as given in ChEMBL document CHEMBL4808251, “Preparation, biological & cheminformatics-based assessment of N2,N4-diphenylpyrimidine-2,4-diamine as potential Kinase-targeted antimalarials” (Bioorg Med Chem, 2021).
In brackets after ≈: the same amount, converted by molar mass.

Columns and labels:
Plasmodium falciparum = test: Antimalarial activity against chloroquine-sensitive plasmodium falciparum 3D7 infected in human erythrocytes assessed as parasite growth inhibition measured after 72 hrs by SYBR green dye based fluorescence analysis; assay type: functional, organism-based; settings: 3D7, Erythrocyte
[1] = Cytotoxicity against human HepG2 cells assessed as inhibition of cell viability relative to control; assay type: cell-based; settings: read-out: INH
[2] = Selectivity index, ratio of IC50 for cytotoxicity against human HepG2 cells to IC50 for antimalarial activity against chloroquine-sensitive plasmodium falciparum 3D7 infected in human erythrocytes; assay type: toxicity, cell-based; settings: read-out: Ratio IC50
HepG2 = test: Cytotoxicity against human HepG2 cells assessed as inhibition of cell growth measured after 72 hrs by resazurin dye based fluorescence assay; settings: HepG2, 72 h
[3] = Aqueous solubility of compound in PBS at pH 7.4 by HPLC-UV analysis; assay type: physicochemical
[4] = target: ERK1 (Mitogen-activated protein kinase 3) (Homo sapiens, UniProt P27361); test: Inhibition of human ERK1 at 1 uM measured after 30 mins by [gamma-33P]-ATP assay
[5] = target: HER4 (Receptor tyrosine-protein kinase erbB-4) (Homo sapiens, UniProt Q15303); test: Inhibition of human HER4 at 1 uM measured after 30 mins by [gamma-33P]-ATP assay
[6] = target: MEKK1 (Mitogen-activated protein kinase kinase kinase 1) (Homo sapiens, UniProt Q13233); test: Inhibition of human MEKK1 at 1 uM measured after 30 mins by [gamma-33P]-ATP assay
[7] = 1-octanol/water partition coefficient, logD of the compound at pH 7.4 measured after 6 hrs by shake flask technique based HPLC-UV analysis; assay type: physicochemical
[8] = Intrinsic clearance in human liver microsomes at 0.5 uM in the presence of NADPH measured upto 30 mins by UPLC-MS/MS analysis; assay type: ADME, Microsome; settings: 0.5 h
[9] = target: PIM1 (Serine/threonine-protein kinase pim-1) (Homo sapiens, UniProt P11309); test: Inhibition of human PIM1 at 1 uM measured after 30 mins by [gamma-33P]-ATP assay
[10] = target: T1, JAK3 (Tyrosine-protein kinase JAK3) (Homo sapiens, UniProt P52333); test: Inhibition of human JAK3 at 1 uM measured after 30 mins by [gamma-33P]-ATP assay
T1 sequence (P52333 whole entry): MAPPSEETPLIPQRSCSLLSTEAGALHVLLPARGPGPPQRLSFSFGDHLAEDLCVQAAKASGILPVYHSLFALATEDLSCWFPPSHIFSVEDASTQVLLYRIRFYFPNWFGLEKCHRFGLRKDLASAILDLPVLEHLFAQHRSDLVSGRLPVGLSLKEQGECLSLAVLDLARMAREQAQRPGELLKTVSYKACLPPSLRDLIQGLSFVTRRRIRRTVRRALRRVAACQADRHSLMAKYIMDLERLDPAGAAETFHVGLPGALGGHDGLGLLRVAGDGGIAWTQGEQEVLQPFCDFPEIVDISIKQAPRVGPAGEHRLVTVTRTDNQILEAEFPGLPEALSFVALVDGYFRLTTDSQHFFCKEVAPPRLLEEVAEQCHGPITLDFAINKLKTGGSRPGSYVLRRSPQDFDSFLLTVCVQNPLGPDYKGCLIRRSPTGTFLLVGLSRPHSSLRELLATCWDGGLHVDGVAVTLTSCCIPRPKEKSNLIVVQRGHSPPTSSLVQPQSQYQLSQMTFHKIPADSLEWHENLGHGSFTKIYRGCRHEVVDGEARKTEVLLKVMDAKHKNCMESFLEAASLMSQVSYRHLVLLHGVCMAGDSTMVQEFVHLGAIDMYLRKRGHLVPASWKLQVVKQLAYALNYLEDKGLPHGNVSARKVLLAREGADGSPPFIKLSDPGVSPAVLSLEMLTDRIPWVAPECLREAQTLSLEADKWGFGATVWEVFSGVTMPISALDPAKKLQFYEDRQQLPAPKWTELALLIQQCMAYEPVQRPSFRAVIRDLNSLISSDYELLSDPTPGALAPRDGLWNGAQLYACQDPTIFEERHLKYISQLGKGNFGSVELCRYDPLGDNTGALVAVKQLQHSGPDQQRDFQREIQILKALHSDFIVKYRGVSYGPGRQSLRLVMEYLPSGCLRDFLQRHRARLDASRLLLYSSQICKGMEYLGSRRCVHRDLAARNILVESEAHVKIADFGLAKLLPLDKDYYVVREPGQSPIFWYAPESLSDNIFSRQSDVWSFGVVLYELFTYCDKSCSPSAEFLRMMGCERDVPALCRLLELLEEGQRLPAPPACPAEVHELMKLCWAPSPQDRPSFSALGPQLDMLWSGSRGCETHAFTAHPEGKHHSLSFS

[11] = target: JNK1 (Mitogen-activated protein kinase 8) (Homo sapiens, UniProt P45983); test: Inhibition of human JNK1 at 1 uM measured after 30 mins by [gamma-33P]-ATP assay
Aurora kinase A = target: T2, Aurora kinase A (Homo sapiens, UniProt O14965); test: Inhibition of human Aurora A at 1 uM measured after 30 mins by [gamma-33P]-ATP assay
T2 sequence (O14965 whole entry): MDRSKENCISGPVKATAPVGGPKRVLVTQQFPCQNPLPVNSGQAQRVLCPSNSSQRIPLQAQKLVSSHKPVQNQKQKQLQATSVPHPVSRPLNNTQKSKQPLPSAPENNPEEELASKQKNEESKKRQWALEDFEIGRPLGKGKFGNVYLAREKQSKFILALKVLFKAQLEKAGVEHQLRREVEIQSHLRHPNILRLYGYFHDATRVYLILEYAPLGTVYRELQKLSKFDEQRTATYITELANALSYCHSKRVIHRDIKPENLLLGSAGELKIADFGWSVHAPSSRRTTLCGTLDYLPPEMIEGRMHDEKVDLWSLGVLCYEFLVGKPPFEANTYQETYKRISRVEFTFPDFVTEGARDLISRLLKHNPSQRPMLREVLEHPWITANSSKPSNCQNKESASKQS

[12] = target: CDK2 (Cyclin-dependent kinase 2) (Homo sapiens, UniProt P24941); test: Inhibition of human CDK2 at 1 uM measured after 30 mins by [gamma-33P]-ATP assay
[13] = Effective permeability of the compound in PBS at pH 7.4 at 10 uM incubated for 5 hrs by PAMPA based UPLC-MS/MS analysis; assay type: ADME; settings: read-out: permeability
[14] = target: VEGFR1 (Vascular endothelial growth factor receptor 1) (Homo sapiens, UniProt P17948); test: Inhibition of human VEGFR1 at 1 uM measured after 30 mins by [gamma-33P]-ATP assay; settings: human VEGFR1 kinase
Chain of VEGFR1 (Vascular endothelial growth factor receptor 1) (P17948 whole entry): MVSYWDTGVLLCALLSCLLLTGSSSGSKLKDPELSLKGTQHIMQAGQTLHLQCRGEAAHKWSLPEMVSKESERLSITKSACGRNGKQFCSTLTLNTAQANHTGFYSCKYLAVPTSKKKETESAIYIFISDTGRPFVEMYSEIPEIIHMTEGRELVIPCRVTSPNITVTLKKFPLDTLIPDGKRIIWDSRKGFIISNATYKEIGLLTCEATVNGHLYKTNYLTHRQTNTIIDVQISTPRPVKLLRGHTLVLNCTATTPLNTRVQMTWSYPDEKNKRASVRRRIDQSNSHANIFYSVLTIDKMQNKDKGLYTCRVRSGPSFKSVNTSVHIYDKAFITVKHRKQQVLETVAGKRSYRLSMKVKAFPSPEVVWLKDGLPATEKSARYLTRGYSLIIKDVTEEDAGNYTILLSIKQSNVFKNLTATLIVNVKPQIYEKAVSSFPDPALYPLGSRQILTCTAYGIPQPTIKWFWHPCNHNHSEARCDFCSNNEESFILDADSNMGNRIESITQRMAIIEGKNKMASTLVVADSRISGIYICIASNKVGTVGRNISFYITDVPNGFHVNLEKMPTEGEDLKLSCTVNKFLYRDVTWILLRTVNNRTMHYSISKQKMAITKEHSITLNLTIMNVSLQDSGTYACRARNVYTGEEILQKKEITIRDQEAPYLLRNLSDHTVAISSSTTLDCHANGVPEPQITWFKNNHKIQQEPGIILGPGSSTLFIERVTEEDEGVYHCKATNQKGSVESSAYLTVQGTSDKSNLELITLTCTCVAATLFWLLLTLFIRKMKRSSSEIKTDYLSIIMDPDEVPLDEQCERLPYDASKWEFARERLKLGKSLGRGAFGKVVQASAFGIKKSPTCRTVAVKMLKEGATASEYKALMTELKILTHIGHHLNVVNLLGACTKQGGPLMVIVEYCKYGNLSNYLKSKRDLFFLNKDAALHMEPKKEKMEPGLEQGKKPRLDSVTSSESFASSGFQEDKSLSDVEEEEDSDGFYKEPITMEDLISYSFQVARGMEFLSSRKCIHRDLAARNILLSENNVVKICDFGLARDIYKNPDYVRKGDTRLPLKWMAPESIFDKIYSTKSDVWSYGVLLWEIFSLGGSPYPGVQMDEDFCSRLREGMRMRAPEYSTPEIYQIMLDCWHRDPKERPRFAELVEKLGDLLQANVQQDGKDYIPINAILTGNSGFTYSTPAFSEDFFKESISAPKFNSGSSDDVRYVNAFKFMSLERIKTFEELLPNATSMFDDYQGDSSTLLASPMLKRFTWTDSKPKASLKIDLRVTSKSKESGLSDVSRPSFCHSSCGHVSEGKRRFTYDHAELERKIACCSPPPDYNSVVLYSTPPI

Chain of JNK1 (Mitogen-activated protein kinase 8) (P45983 whole entry): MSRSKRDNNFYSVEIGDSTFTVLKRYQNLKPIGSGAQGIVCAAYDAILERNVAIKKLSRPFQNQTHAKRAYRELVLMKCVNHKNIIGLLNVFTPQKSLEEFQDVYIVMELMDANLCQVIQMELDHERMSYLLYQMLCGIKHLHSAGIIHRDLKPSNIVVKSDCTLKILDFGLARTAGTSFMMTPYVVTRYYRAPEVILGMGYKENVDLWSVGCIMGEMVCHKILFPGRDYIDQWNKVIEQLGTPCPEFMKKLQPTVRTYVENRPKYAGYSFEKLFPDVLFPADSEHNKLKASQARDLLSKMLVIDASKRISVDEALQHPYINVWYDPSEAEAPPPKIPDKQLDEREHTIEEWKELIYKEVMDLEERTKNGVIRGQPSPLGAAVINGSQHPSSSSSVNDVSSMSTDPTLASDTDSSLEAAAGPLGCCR
Chain of ERK1 (Mitogen-activated protein kinase 3) (P27361 whole entry): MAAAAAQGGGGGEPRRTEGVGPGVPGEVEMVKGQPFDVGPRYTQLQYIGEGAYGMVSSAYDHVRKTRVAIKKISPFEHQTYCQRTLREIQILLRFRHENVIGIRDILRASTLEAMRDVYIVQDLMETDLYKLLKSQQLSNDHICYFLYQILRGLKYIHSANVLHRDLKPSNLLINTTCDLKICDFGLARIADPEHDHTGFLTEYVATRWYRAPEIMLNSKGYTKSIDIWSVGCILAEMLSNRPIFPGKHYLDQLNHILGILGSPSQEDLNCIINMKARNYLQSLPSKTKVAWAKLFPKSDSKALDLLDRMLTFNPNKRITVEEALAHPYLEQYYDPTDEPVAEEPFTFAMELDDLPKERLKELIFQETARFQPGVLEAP
Chain of PIM1 (Serine/threonine-protein kinase pim-1) (P11309 whole entry): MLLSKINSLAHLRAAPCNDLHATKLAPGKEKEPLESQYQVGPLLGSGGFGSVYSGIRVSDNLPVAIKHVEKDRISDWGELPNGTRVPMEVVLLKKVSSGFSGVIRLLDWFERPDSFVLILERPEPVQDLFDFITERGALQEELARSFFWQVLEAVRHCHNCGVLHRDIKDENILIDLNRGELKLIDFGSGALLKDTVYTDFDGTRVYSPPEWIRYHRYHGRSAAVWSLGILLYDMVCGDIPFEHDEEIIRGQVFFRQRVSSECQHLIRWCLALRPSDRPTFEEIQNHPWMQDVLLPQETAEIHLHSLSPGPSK
Chain of MEKK1 (Mitogen-activated protein kinase kinase kinase 1) (Q13233 whole entry): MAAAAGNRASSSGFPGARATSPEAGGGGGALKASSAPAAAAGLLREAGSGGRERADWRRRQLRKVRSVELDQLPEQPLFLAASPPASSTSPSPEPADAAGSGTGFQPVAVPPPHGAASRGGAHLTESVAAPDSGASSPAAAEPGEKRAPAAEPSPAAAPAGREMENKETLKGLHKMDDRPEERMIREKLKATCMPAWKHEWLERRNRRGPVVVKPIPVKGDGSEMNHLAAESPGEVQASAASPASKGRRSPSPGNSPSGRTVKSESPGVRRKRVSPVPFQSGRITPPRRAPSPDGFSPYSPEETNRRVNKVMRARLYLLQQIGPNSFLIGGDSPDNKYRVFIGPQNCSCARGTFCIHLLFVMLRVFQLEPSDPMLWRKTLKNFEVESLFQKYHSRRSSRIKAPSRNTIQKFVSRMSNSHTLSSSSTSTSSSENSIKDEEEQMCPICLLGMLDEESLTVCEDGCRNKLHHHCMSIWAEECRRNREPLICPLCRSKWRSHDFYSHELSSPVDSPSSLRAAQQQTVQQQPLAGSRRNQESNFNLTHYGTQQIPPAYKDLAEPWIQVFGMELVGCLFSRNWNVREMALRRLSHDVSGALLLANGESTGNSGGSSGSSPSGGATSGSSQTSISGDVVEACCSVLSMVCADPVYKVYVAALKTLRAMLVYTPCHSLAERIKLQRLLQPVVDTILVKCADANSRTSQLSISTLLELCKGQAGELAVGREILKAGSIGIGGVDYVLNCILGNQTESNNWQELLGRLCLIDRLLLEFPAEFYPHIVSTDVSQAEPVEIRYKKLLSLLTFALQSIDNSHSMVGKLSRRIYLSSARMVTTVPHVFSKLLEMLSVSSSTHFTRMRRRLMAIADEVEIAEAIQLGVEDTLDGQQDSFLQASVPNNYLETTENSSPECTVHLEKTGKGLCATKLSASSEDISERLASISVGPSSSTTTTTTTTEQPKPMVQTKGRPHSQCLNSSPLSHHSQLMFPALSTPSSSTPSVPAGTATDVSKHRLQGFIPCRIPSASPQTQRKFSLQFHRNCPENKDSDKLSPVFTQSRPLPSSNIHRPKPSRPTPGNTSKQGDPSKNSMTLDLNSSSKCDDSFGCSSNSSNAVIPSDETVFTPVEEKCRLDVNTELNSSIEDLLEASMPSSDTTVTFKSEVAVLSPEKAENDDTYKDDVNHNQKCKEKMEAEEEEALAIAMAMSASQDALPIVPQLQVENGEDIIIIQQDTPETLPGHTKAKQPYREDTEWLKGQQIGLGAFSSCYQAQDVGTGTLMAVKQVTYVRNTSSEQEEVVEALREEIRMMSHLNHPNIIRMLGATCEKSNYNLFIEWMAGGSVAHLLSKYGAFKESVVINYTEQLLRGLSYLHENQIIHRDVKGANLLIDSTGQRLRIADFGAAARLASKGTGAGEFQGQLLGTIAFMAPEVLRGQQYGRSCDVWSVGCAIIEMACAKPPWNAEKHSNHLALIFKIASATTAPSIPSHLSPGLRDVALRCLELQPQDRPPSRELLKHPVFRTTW

SMILES | IC50 (Plasmodium falciparum) | selectivity ratio [2] | IC50 (HepG2) | further results
CC(=O)c1ccc(NC(=O)Nc2ccc(N(C)c3ccnc(Nc4cccc(CS(C)(=O)=O)c4)n3)cc2)cc1 | 0.12 µM |  |  | cytotoxicity [1]: 86%
Cc1c2ccc(Nc3ccnc(Nc4ccc(S(N)(=O)=O)cc4)n3)cc2nn1C | 13 µM | > 1.9 | > 25 µM | 
Cc1cnc(Nc2ccc(S(N)(=O)=O)cc2)nc1Nc1ccc2nc[nH]c2c1 | 3.2 µM | 5.6 | 18 µM | 
c1cc(Nc2nccc(Nc3ccc4cn[nH]c4c3)n2)cc(N2CCOCC2)c1 | 4.2 µM | 3.8 | 16 µM | 
NS(=O)(=O)c1cccc(Nc2nccc(Nc3ccc4nc[nH]c4c3)n2)c1 | 4.2 µM | > 6 | > 25 µM | 
Cc1ccc(Nc2nccc(Nc3ccc4cn[nH]c4c3)n2)cc1 | 2.5 µM | 7.2 | 18 µM | 
Cc1c2ccc(Nc3ccnc(Nc4cccc(S(N)(=O)=O)c4)n3)cc2nn1C | 10 µM | 1.9 | 19 µM | 
Cc1cc(Nc2nccc(Nc3ccc4nc[nH]c4c3)n2)ccc1N1CCN(C)CC1 | 0.42 µM | 36 | 15 µM | solubility [3]: 16 µM (≈ 6.63 µg/mL); inhibition at 0.5 h, 1 µM [4]: 71%; inhibition at 0.5 h, 1 µM [5]: 35.4%; inhibition at 0.5 h, 1 µM [6]: 44.4%; logD at 6 h [7]: 2.9; CLH [8]: 1.8 mL/min/g; inhibition at 0.5 h, 1 µM [9]: 108%; inhibition at 0.5 h, 1 µM [10]: 57.8%; inhibition at 0.5 h, 1 µM [11]: 63.5%; inhibition at 0.5 h, 1 µM (Aurora kinase A): 15.7%; inhibition at 0.5 h, 1 µM [12]: 57.3%; Papp at 5 h, 10 µM [13]: 0.02 ×10⁻⁶ cm/s; inhibition at 0.5 h, 1 µM [14]: 2.9%
CN1CCN(c2cccc(Nc3nccc(Nc4ccc5nc[nH]c5c4)n3)c2)CC1 | 0.87 µM | 13 | 11 µM | 
CN1CCN(c2cccc(Nc3nccc(Nc4ccc5cn[nH]c5c4)n3)c2)CC1 | 1.1 µM | 6.1 | 6.7 µM | 
c1cc(Nc2nccc(Nc3ccc4nc[nH]c4c3)n2)cc(N2CCOCC2)c1 | 2.4 µM | 4 | 9.6 µM | 
Cc1cccc(Nc2ncc(C)c(Nc3ccc4nc[nH]c4c3)n2)c1 | 0.77 µM | 8.6 | 6.6 µM | 
c1cc(Nc2ccc3nc[nH]c3c2)nc(Nc2ccc(N3CCOCC3)cc2)n1 | 3.2 µM | > 7.8 | > 25 µM | 
Cc1cccc(Nc2ncc([N+](=O)[O-])c(Nc3ccc4nc[nH]c4c3)n2)c1 | 0.78 µM | 28 | 22 µM | solubility [3]: 1 µM (≈ 0.361 µg/mL); inhibition at 0.5 h, 1 µM [4]: 69.8%; inhibition at 0.5 h, 1 µM [5]: 83.8%; inhibition at 0.5 h, 1 µM [6]: 43.2%; logD at 6 h [7]: 3.2; CLH [8]: 19 mL/min/g; inhibition at 0.5 h, 1 µM [9]: 76.7%; inhibition at 0.5 h, 1 µM [10]: 54.9%; inhibition at 0.5 h, 1 µM [11]: 91%; inhibition at 0.5 h, 1 µM (Aurora kinase A): 15.6%; inhibition at 0.5 h, 1 µM [12]: 25.3%; Papp at 5 h, 10 µM [13]: 3.8 ×10⁻⁶ cm/s; inhibition at 0.5 h, 1 µM [14]: 27.9%
CS(=O)(=O)Nc1cccc(Nc2nccc(Nc3ccc4nc[nH]c4c3)n2)c1 | 2.8 µM | > 8.9 | > 25 µM | 
c1cc(Nc2ccc3cn[nH]c3c2)nc(Nc2ccc(N3CCOCC3)cc2)n1 | 2.2 µM | 3.6 | 8 µM | 
Cc1cccc(Nc2ncc(Cl)c(Nc3ccc4nc[nH]c4c3)n2)c1 | 2 µM | 3.7 | 7.4 µM | 

SMILES | IC50 (Plasmodium falciparum) | selectivity ratio [2] | IC50 (HepG2) | further results
NC(=O)c1ccc(Nc2nccc(Nc3ccc4cn[nH]c4c3)n2)cc1 | 5.4 µM | 3 | 16 µM | 
CN1CCN(c2ccc(Nc3nccc(Nc4ccc5nc[nH]c5c4)n3)cc2)CC1 | 0.66 µM | > 38 | > 25 µM | solubility [3]: 124 µM (≈ 49.7 µg/mL); inhibition at 0.5 h, 1 µM [4]: 91.3%; inhibition at 0.5 h, 1 µM [5]: 41.6%; inhibition at 0.5 h, 1 µM [6]: 47.9%; logD at 6 h [7]: 2.3; CLH [8]: 0.8 mL/min/g; inhibition at 0.5 h, 1 µM [9]: 89.3%; inhibition at 0.5 h, 1 µM [10]: 69.2%; inhibition at 0.5 h, 1 µM [11]: 75.9%; inhibition at 0.5 h, 1 µM (Aurora kinase A): 20.6%; inhibition at 0.5 h, 1 µM [12]: 85%; Papp at 5 h, 10 µM [13]: 0.02 ×10⁻⁶ cm/s; inhibition at 0.5 h, 1 µM [14]: 7.9%
NS(=O)(=O)c1ccc(Nc2nccc(Nc3ccc4nc[nH]c4c3)n2)cc1 | 8.2 µM | > 3 | > 25 µM | 
Cc1cccc(Nc2nccc(Nc3ccc4cn[nH]c4c3)n2)c1 | 3.6 µM | 4.2 | 15 µM | 
CN1CCN(c2ccc(Nc3nccc(Nc4ccc5cn[nH]c5c4)n3)cc2)CC1 | 0.6 µM | 12 | 7 µM | 
Cc1cccc(Nc2nccc(Nc3ccc4nc[nH]c4c3)n2)c1 | 0.98 µM | 20 | 20 µM | 
NS(=O)(=O)c1ccc(Nc2ncc(Cl)c(Nc3ccc4nc[nH]c4c3)n2)cc1 | 2.5 µM | 3.1 | 7.8 µM | 
O=C(O)c1ccc(Nc2nccc(Nc3ccc4nc[nH]c4c3)n2)cc1 | 8.2 µM | > 3 | > 25 µM | 
Brc1ccc(Nc2nccc(Nc3ccc4cn[nH]c4c3)n2)cc1 | 1.6 µM | 13 | 20 µM | 
Brc1cccc(Nc2nccc(Nc3ccc4cn[nH]c4c3)n2)c1 | 2.6 µM | 6.5 | 17 µM | 
NS(=O)(=O)c1ccc(Nc2nccc(Nc3ccc4cn[nH]c4c3)n2)cc1 | 19 µM | 1.2 | 22 µM | 
Cc1ccc(Nc2nccc(Nc3ccc4nc[nH]c4c3)n2)cc1 | 1.4 µM | > 18 | > 25 µM | 
CN1CCN(c2ccc(Nc3ncc(C#N)c(Nc4ccccc4C(N)=O)n3)cc2)CC1 | 0.04 µM |  |  | cytotoxicity [1]: 43%
O[C@@H](c1cc(C(F)(F)F)nc2c(C(F)(F)F)cccc12)[C@H]1CCCCN1 [(S,R)-MEFLOQUINE] | 0.014 µM |  |  | 
C[C@H]1[C@@H](O)O[C@@H]2O[C@@]3(C)CC[C@H]4[C@H](C)CC[C@@H]1[C@@]24OO3 [ARTENIMOL] | 0.031 µM |  |  | 
CCc1nc(N)nc(N)c1-c1ccc(Cl)cc1 [PYRIMETHAMINE] | 0.004 µM |  |  | 
